The source of these data is ChEMBL document CHEMBL1201862, “PubChem BioAssay data set” (2004).

The target in one data set is Cytochrome P450 2C9 (Homo sapiens, UniProt P11712).
A further data set concerns the target T1, Cytochrome P450 1A2 (Homo sapiens, UniProt P05177).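 Further: PubChem cytochrome P450 panel assay, CYP1A2 panel member.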
T1 sequence (P05177 whole entry): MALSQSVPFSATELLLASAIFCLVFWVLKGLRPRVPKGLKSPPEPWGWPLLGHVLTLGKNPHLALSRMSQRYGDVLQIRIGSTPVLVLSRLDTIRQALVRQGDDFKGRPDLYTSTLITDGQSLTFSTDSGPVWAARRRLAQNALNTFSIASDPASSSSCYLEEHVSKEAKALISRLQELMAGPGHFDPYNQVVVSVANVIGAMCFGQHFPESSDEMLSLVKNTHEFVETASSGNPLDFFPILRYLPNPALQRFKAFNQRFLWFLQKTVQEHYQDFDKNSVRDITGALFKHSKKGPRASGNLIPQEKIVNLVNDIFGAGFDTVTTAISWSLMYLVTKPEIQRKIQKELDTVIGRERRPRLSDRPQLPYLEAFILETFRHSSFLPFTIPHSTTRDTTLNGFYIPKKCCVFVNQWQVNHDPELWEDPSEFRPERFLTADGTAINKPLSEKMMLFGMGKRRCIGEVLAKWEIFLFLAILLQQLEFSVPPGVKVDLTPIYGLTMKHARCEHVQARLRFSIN

In data set [1] the test system is INS1. Briefly: beta-cell survival under cytokine stress – INS-1E, ATP luminescence, dry powder, dose response (AID 488844). Particulars: Rattus norvegicus. The data set is classed as functional, cell-based.
The nature of data set [2]: Luminescence Cell-Based Dose Retest to Confirm Inhibitors of Cancer Stem Cells. [Related pubchem assays (depositor defined):AID2717, AID2721]. The data set is classed as functional. Particulars: Homo sapiens.
In data set [3] the test system is INS1. Briefly: INS-1E survival protection against cytokine death – cell-based, luminescence, retest, dose response (AID 449756).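 Further: cell death triggered by IL-1 beta plus TNF-alpha plus IFN-gamma mixture; protective hits raise ATP signal compared with cytokine alone wells.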 The data set is classed as functional. Particulars: Rattus norvegicus.
Data set [4] is described as follows: viability loss of HMLE_sh_eGFP cells – cell-based, luminescence, counter-screen for HMLE_sh_ECad selective toxicity project, dose response (AID 463074).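 Further: HMLE human mammary epithelial cells expressing control shRNA against eGFP.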 Type of data set: functional, Homo sapiens.
The target in data set [5] is Intestinal-type alkaline phosphatase (Mus musculus, UniProt P24822). Description: PubChem AID 488785. Type of data set: functional.
Data set [6] addresses Intestinal-type alkaline phosphatase (Homo sapiens, UniProt P09923). Briefly: inhibition of human intestinal alkaline phosphatase – biochemical, dose response (AID 488876). The data set is classed as functional.
Data set [7] deals with T2, Alkaline phosphatase, tissue-nonspecific isozyme (Homo sapiens, UniProt P05186).
T2 sequence (P05186 whole entry): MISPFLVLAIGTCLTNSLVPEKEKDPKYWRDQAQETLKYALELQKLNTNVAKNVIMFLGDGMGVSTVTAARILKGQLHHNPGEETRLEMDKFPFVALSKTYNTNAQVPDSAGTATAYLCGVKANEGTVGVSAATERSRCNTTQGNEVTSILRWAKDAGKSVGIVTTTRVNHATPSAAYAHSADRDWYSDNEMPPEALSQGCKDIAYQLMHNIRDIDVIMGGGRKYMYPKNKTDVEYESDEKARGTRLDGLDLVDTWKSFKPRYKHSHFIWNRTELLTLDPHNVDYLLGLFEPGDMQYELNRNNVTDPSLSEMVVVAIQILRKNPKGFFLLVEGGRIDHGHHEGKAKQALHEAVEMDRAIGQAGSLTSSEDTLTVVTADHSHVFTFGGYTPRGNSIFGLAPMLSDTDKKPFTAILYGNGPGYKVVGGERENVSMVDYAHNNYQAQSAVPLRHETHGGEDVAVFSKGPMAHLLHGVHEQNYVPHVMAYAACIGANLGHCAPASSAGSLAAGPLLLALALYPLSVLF
Briefly: TNAP enzyme inhibition by screening hits, dose response, selectivity assay for mouse IAP inhibitor project, biochemical, human TNAP, uHTS hits (AID 488906). Type of data set: functional.

The subject of data set [8] is HEK293. Briefly: NOD2 signaling inhibitors in MDP-stimulated cells, cell-based, uHTS, luminescence (AID 2001). Type of data set: functional. The following applies: Homo sapiens.
For data set [9], the system named is HEK293. Briefly: cells. Particulars: Homo sapiens.
For data set [10], the target named is T3, Sentrin-specific protease 8 (Homo sapiens, UniProt Q96LD8).
T3 sequence (Q96LD8 whole entry): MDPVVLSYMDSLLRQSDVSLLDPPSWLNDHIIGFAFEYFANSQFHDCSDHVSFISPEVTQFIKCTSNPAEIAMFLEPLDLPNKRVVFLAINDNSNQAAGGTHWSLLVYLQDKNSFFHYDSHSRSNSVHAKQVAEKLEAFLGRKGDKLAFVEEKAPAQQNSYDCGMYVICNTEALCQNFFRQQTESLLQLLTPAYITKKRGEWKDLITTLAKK
Type of data set: functional.

The test system of data set [11] is HEK293. Briefly: inhibition of NOD1-driven NF-kB reporter – cell-based, luminescence, uHTS, primary screen (AID 1578). The data set is classed as functional. The following applies: Homo sapiens.
Data set [12] deals with HEK293. Description: cells. Type of data set: functional, cell-based. The following applies: Homo sapiens.
Data set [13] addresses Nucleotide-binding oligomerization domain-containing protein 1 (Homo sapiens, UniProt Q9Y239). Description: blockers of NOD1 pathway activity – revised, SAR follow-up (AID 2333). Type of data set: functional.
Another data set addresses Tumor necrosis factor (Homo sapiens, UniProt P01375). Briefly: analog potency on TNFa NF-kB signaling – cell-based, revised, SAR follow-up (AID 2337). The data set is classed as functional.
Data set [14] has as its system HEK293. Briefly: cells. Type of data set: functional, cell-based. The following applies: Homo sapiens. The source holds these as a separate data set.
For data set [15], the target named is T3, Sentrin-specific protease 8. The data set is classed as functional. This is another data set of the same source.
A short description of data set [16]: Luminescence Cell-Based/Microorganism Confirmation at Dose of Inhibitors of Trypanosoma cruzi Infection. [Related pubchem assays: 1885, 1968 ]. The data set is classed as functional.
The nature of data set [17]: T. cruzi infection blockers in NIH3T3 cells – beta-gal luminescence, NIH3T3 host cells, confirmation (AID 2630). Particulars: Mus musculus. Type of data set: functional, cell-based.
The nature of data set [18]: Luminescence Cell-Based Secondary HTS screen to identify cytotoxic compounds of NIH3T3 cells. [Related pubchem assays: 1885, 1968 ]. The data set is classed as functional.
The nature of data set [19]: NIH3T3 cell viability loss – ATP luminescence, mouse fibroblasts, counter-screen, dose response (AID 2010).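 Further: cells exposed to compound for about 90 hours before reading.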 The data set is classed as functional, cell-based. On the technique in general: The purpose of a counterscreen is to sort out artefacts and off-target activity.
Data set [20] in a line: Trypanosoma cruzi growth suppression in host cells – NIH3T3 host cells, beta-gal luminescence, confirmation (AID 2044).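 Further: intracellular parasites grown in NIH/3T3 mouse fibroblasts as host cells; luminescent beta-galactosidase reporter signal from transgenic T. cruzi replicating inside host cells; inhibitors lower the luminescence signal.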 Type of data set: functional, cell-based.

Several values for one entry are separate records, joined by “and”; a condition that tells them apart may be missing. Equal values may be shown once. Activity calls are given as the source filed them.

Tumor necrosis factor, sequence (P01375 whole entry): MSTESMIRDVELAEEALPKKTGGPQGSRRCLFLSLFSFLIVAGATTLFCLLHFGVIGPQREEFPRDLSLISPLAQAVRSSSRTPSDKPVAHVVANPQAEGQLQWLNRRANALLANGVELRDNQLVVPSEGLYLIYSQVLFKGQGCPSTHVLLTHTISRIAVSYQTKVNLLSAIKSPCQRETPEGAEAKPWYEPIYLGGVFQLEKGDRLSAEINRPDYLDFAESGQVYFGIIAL
Nucleotide-binding oligomerization domain-containing protein 1, sequence (Q9Y239 whole entry, the tested form may be a part): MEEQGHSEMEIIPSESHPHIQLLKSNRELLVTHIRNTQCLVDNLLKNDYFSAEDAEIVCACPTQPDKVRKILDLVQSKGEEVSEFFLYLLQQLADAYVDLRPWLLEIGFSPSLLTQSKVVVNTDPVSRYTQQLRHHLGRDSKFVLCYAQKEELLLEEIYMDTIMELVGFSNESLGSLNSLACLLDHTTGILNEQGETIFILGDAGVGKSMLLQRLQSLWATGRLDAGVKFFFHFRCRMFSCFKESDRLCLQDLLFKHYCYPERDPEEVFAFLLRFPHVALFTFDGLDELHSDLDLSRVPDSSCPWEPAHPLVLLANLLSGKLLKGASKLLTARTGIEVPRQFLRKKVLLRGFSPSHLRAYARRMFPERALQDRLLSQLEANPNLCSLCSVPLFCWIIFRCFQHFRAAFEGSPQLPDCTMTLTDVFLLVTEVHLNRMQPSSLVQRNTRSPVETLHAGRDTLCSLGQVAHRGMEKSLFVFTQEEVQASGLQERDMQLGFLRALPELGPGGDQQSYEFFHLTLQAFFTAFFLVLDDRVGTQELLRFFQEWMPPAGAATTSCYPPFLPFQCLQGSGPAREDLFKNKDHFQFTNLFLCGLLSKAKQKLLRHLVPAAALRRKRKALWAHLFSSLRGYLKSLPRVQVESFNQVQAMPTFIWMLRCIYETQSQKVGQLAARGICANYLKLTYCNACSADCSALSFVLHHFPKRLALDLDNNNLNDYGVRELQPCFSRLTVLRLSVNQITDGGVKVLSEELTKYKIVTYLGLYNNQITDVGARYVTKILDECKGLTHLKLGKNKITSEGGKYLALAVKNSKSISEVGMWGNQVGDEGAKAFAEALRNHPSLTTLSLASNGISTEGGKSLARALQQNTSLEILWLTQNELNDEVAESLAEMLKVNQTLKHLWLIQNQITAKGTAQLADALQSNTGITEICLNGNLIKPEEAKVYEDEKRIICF
Intestinal-type alkaline phosphatase (Mus musculus, UniProt P24822), sequence (P24822 whole entry): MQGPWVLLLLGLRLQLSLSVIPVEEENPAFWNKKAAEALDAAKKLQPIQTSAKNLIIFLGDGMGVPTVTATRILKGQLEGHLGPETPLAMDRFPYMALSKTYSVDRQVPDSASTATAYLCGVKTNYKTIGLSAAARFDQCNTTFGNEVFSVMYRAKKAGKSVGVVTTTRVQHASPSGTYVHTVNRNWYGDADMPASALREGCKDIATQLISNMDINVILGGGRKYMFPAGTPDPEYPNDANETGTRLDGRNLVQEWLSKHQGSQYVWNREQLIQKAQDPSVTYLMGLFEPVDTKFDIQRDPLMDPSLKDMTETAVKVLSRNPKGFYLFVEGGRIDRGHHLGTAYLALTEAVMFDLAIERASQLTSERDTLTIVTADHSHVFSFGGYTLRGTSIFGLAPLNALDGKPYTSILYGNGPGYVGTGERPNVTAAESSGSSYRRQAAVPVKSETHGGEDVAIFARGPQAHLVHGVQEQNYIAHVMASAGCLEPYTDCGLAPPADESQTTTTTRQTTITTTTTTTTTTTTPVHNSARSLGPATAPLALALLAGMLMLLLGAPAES
Cytochrome P450 2C9, sequence (P11712 whole entry): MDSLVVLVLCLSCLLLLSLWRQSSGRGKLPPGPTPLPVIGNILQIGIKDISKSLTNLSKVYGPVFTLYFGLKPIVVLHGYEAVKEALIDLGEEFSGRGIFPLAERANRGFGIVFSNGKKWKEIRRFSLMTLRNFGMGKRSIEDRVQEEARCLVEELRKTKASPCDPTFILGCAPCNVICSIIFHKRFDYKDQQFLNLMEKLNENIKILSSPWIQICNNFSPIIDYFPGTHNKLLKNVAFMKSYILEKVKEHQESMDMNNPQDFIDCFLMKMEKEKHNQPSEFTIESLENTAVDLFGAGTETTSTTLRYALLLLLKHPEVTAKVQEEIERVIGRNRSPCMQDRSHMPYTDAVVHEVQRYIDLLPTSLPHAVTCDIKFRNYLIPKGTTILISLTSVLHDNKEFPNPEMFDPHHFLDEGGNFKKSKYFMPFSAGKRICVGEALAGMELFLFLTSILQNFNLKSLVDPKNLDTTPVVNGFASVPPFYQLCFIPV
Intestinal-type alkaline phosphatase (Homo sapiens, UniProt P09923), sequence (P09923 whole entry): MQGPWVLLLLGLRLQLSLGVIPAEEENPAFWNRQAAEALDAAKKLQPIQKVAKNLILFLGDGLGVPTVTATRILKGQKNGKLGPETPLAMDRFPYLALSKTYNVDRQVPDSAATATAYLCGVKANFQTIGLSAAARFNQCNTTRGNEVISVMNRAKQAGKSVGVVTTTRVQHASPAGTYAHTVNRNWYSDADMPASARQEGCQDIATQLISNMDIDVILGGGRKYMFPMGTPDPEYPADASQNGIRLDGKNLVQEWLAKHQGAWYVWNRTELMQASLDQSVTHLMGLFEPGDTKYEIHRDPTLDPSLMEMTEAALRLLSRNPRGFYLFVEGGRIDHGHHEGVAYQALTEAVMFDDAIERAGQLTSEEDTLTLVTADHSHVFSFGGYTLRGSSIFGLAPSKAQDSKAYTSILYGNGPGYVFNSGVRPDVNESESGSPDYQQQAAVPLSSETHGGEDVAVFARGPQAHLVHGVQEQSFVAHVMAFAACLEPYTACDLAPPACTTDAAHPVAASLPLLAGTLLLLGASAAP

One may read the AC50 as the concentration giving half of the maximal activity seen. In the case of `COc1cc(OC)c(C(=O)CCCN2CCCC2)c(OC)c1` [BUFLOMEDIL], the half-maximal activity concentration (AC50) result on Cytochrome P450 2C9 and at Cytochrome P450 1A2 was “inactive” throughout.
In the case of `COc1ccc(S(=O)(=O)N(C)C[C@@H]2Oc3c(NS(=O)(=O)c4ccc(C)cc4)cccc3C(=O)N([C@@H](C)CO)C[C@H]2C)cc1`, in the data set on INS1 [1], the AC50 was > 235 µM (inactive).
For the compound `c1ccc(N2CCN(CC3CCCCC3)CC2)cc1`, the results for the AC50 (in data set [2]; with INS1 [3]; in data set [4]) were 25.3 µM (active), 91.4 µM (active) and 95.2 µM (active), respectively.
In general, IC50 refers to the concentration that inhibits the measured activity by half. Turning to `CCn1nc(C)c(CN2CCC(C(=O)Nc3cccc(-c4cccc(Cl)c4)c3)CC2)c1C`, the IC50 in data set [5] is 1.87 µM (active); in [6] it was 4.61 µM (active); in data set [7], 41 µM (active).
A word on the EC50: it is the concentration at which the effect is half-maximal. As to `O=C(Nc1ccc(Cl)cc1)c1ccc(CN2CCc3ccccc3C2)cc1`, the IC50 is 5.45 µM (inactive) in the data set on HEK293 [8]; > 20 µM (inactive) with HEK293 [9]; 22.1 µM (active) in [10]; > 20 µM (inactive) with HEK293 [12]; 1.19 µM (active) and 833 nM (active) in data set [13]; 4.66 µM (active) and 491 nM (active) on Tumor necrosis factor. For the same compound, the figures for the IC50 (with HEK293 [14]; in data set [15]) were 2.11 µM (active) and > 100 µM (inactive), respectively. Also, the EC50 in the data set on HEK293 [11] is 2.29 µM (active).
With `CCOc1ccc2oc(=O)cc(CN3CCN(Cc4ccccc4)CC3)c2c1`, the EC50 in data set [16] is 0.903 µM (inconclusive); in data set [17], 0.903 µM (active); in data set [18], > 195 µM (inconclusive); in data set [19], > 30 µM (not active); in data set [20], 0.216 µM (active).
